Measurements from patent EP2727916A1, “Neuroprotective multi-target directed drugs” (Universitat Autònoma de Barcelona, priority 2012, dated 2014).
Where two headings read alike, the source gives them in different places.

Experiments:
[1] = target: T1, electrophorus electricus acetylcholinesterase (eeAChE) (Electrophorus electricus, UniProt O42275); settings: reference value, footnote (a) Zheng et al. 2010; cited from earlier work
[2] = target: T2, equine serum butyrylcholinesterase (eqBuChE) (Equus caballus, UniProt P81908); settings: reference value, footnote (a) Zheng et al. 2010; cited from earlier work
T2 sequence (P81908 whole entry): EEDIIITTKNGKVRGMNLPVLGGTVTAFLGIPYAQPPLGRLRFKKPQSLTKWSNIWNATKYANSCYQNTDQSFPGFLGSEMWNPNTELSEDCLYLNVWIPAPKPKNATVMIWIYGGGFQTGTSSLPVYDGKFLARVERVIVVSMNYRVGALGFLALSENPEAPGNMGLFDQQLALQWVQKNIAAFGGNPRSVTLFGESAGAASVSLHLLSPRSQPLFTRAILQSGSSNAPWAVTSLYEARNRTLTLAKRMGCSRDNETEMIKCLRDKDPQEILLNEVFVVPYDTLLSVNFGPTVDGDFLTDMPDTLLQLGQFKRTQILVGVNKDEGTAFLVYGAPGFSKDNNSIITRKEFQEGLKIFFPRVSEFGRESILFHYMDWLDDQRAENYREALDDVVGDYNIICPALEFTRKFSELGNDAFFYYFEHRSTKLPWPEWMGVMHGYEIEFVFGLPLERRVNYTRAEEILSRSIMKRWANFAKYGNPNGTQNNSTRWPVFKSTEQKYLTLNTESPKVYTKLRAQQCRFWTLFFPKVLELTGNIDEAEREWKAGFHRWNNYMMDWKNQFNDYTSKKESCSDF

ratMAO-B [3] = target: T3, ratMAO-B (Rattus norvegicus, UniProt P19643); experiment: MAO-B inhibition, radiometric method of Fowler and Tipton (14C PEA); assay type: biochemical; parameters: MAO-A and MAO-B activities were determined in rat brain homogenate; from tissue; host or cells: rat brain homogenate per the methods; settings: for IC50: 30 min pre-incubation at 37 °C, 20 µM PEA, mean ± standard error of the mean
T3 sequence (P19643 1-520): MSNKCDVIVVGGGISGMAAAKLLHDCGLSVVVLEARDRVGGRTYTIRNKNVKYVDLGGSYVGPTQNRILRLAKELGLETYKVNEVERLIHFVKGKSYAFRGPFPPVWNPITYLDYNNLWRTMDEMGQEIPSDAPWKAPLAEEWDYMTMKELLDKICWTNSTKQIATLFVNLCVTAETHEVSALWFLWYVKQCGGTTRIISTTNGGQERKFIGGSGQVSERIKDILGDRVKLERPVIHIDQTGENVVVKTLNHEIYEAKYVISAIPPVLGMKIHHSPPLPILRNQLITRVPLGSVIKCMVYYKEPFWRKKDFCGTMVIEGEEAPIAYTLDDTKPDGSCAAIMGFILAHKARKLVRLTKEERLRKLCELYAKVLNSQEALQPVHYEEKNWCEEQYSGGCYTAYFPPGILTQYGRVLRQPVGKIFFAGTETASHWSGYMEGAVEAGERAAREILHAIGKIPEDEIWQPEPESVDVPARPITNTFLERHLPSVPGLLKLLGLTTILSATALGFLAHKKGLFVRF

ratMAO-A [4] = target: T4, ratMAO-A (Rattus norvegicus, UniProt P21396); parameters: MAO-A and MAO-B activities were determined in rat brain homogenate; from tissue; host or cells: rat brain homogenate per the methods; settings: reference value, footnote (a) Zheng et al. 2010; cited from earlier work
T4 sequence (P21396 1-526): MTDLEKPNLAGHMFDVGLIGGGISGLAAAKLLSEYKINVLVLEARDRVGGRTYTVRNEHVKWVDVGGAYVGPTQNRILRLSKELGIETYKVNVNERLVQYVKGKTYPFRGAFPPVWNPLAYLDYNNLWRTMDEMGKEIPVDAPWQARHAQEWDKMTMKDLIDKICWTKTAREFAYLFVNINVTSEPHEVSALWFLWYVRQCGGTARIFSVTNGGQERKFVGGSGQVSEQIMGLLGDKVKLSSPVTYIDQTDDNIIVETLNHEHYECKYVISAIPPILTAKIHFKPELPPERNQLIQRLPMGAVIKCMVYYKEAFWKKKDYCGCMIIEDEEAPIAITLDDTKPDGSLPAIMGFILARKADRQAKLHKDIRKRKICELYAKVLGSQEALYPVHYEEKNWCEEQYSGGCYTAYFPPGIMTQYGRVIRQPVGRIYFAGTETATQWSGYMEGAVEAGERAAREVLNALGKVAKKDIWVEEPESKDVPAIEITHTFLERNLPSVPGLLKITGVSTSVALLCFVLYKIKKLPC

ratMAO-B [5] = target: T3, ratMAO-B; parameters: MAO-A and MAO-B activities were determined in rat brain homogenate; from tissue; host or cells: rat brain homogenate per the methods; settings: reference value, footnote (a) Zheng et al. 2010; cited from earlier work
bovine lung SSAO = target: T5, bovine lung SSAO (Bos taurus, UniProt Q9TTK6); experiment: Inhibition of semicarbazide sensitive amine oxidase (SSAO), radiochemical; assay type: biochemical; settings: bovine lung SSAO; mean ± standard error of the mean; read-out: IC50 bovineSSAO
T5 construct: and bovine lung SSAO by compounds of the invention; from tissue; host or cells: bovine lung
T5 sequence (Q9TTK6 1-763): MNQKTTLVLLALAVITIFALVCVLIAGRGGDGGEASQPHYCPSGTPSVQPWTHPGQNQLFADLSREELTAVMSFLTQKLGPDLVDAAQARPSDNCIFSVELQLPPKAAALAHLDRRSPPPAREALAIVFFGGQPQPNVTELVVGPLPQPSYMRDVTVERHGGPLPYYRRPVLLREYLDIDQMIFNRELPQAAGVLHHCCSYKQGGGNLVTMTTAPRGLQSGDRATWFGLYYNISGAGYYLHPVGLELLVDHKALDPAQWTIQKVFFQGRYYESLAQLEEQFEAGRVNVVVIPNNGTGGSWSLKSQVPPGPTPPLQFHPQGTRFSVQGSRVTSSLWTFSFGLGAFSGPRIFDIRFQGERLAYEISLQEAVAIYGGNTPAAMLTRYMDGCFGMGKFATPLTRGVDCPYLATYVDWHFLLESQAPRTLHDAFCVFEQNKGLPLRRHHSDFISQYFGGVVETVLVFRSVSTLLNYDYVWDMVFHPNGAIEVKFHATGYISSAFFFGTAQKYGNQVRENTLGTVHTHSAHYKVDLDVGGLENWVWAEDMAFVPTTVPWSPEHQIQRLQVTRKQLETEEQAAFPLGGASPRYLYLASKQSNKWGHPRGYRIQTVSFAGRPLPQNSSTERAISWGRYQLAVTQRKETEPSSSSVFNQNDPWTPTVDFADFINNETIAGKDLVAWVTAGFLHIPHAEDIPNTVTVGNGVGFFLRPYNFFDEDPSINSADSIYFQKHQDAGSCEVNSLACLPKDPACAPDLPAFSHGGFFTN

[6] = target: T1, electrophorus electricus acetylcholinesterase (eeAChE); experiment: biochemical; assay type: biochemical; settings: 20 minutes incubation at 37°C; mean ± standard error of the mean; read-out: IC50 EeAChE
[7] = target: T2, equine serum butyrylcholinesterase (eqBuChE); experiment: biochemical; assay type: biochemical
ratMAO-A [8] = target: T4, ratMAO-A; experiment: MAO-A inhibition, radiometric method of Fowler and Tipton (14C 5-HT); assay type: biochemical; parameters: MAO-A and MAO-B activities were determined in rat brain homogenate; from tissue; host or cells: rat brain homogenate per the methods; settings: 30 min pre-incubation at 37 °C; 100µM 5-HT; mean ± standard error of the mean
[9] = 20 minutes incubation at 37°C, mean ± standard error of the mean, read-out: IC50 eqBuChE

T1 sequence (O42275 24-633): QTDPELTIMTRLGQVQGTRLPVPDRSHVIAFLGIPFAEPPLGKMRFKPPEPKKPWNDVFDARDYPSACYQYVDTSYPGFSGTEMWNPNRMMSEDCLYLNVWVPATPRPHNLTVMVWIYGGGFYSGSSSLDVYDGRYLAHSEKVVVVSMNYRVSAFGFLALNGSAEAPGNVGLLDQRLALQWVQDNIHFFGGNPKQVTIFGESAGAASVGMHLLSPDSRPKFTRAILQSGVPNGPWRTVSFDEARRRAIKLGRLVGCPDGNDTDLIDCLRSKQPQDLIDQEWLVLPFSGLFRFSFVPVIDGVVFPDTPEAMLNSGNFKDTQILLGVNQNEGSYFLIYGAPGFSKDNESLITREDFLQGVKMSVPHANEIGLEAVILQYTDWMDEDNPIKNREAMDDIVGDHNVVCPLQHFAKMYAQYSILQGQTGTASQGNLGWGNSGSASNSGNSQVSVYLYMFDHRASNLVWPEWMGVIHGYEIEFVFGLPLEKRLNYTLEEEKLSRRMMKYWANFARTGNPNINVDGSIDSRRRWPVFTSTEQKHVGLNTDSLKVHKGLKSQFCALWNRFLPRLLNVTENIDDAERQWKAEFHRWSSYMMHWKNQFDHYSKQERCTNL

Structure (SMILES) | IC50 [1] [µM] | IC50 [2] [µM] | IC50 eqBuChE [2] | MAO-B/ MAO-A (ratMAO-B [3]) | IC50 (ratMAO-A [4]) [nM] | IC50 (ratMAO-B [5]) [nM] | IC50 (bovine lung SSAO) [µM] | IC50 [6] [µM] | BuChE/ AChE [7] | IC50 [7] [µM] | IC50 (ratMAO-A [8]) [µM] | IC50 (ratMAO-B [3]) [µM] | IC50 [7, 9] [µM] | BuChE/ AChE ([7]; ratio of IC50 values) | MAO-B/ MAO-A (ratMAO-B [3]; ratio of IC50 values)
C#CCN(C)Cc1ccc(O)c2ncccc12 [Compound M-30] | 114 ± 14.1 | ≥ 100 | inactive | 1.5 | 37 ± 20 | 57 ± 20 |  |  |  |  |  |  |  |  | 
C#CCN(Cc1ccc(O)c2ncccc12)C(C#N)CC1CCN(Cc2ccccc2)CC1 (centres unmarked) [Compound 4, 3-(1-benzylpiperidin-4-yl)-2-(((8-hydroxyquinolin-5-yl)methyl)(prop-2-ynyl)amino)propanenitrile] |  |  |  | 1.2 |  |  | 2.79 ± 0.7 | 5.53 ± 0.5 | 1.1 | 6.06 ± 0.6 | 9.67 ± 1.5 | 12.4 ± 2.5 |  |  | 
C#CCN(CCC1CCN(Cc2ccccc2)CC1)Cc1ccc(O)c2ncccc12 [Compound 5, 5-(((2-(1-benzylpiperidin-4-yl)ethyl)(prop-2-ynyl)amino)methyl)quinolin-8-ol] |  |  |  |  |  |  | 39.7 ± 16 | 5.01 ± 0.8 |  |  | ≥ 100 | 50.08 ± 0.5 | 14.5 ± 3.6 | 2.8 | ≥ 0.5
C#CCN(Cc1ccc(O)c2ncccc12)C(C#N)C1CCN(Cc2ccccc2)CC1 (centres unmarked) [Compound 2, 2-(1-benzylpiperidin-4-yl)-2-(((8-hydroxyquinolin-5-yl)methyl)(prop-2-ynyl)amino)acetonitrile] |  |  |  | 1.7 |  |  | 18 ± 5 | 14.5 ± 3.7 |  |  | 22.1 ± 0.7 | 39.5 ± 1.4 | 13.5 ± 1.8 | 0.92 | 
C#CCN(CCCC1CCN(Cc2ccccc2)CC1)Cc1ccc(O)c2ncccc12 [Compound 7, 5-(((3-(1-benzylpiperidin-4-yl)propyl)(prop-2-ynyl)amino)methyl)quinolin-8-ol] |  |  |  |  |  |  | 61.1 ± 21.4 | 2.67 ± 0.4 |  |  | ≥ 100 | 34.5 ± 3.5 | 4.52 ± 0.3 | 1.6 | ≥ 0.34
C#CCN(Cc1ccc(O)c2ncccc12)CC1CCN(Cc2ccccc2)CC1 [Compound 3, 5-((((1-benzylpiperidin-4-yl)methyl)(prop-2-ynyl)amino)methyl)quinolin-8-ol] |  |  |  |  |  |  | ≥ 100 | 17 ± 4.7 |  |  | 85.4 ± 3.7 | 19.4 ± 3.2 | 12.8 ± 1.4 | 0.75 | 0.22
